The values below come from patent publication US20260356823A1, “SODIUM CHANNEL REGULATOR AND USE THEREOF” (SHANGHAI HUILUN PHARMACEUTICAL CO., LTD., priority 2022, published 2026).

The target in the first test is T1, human Nav1.8 (Homo sapiens, UniProt Q9Y5Y9).
T1 construct: expressed in transfected cells
T1 sequence (Q9Y5Y9 whole entry): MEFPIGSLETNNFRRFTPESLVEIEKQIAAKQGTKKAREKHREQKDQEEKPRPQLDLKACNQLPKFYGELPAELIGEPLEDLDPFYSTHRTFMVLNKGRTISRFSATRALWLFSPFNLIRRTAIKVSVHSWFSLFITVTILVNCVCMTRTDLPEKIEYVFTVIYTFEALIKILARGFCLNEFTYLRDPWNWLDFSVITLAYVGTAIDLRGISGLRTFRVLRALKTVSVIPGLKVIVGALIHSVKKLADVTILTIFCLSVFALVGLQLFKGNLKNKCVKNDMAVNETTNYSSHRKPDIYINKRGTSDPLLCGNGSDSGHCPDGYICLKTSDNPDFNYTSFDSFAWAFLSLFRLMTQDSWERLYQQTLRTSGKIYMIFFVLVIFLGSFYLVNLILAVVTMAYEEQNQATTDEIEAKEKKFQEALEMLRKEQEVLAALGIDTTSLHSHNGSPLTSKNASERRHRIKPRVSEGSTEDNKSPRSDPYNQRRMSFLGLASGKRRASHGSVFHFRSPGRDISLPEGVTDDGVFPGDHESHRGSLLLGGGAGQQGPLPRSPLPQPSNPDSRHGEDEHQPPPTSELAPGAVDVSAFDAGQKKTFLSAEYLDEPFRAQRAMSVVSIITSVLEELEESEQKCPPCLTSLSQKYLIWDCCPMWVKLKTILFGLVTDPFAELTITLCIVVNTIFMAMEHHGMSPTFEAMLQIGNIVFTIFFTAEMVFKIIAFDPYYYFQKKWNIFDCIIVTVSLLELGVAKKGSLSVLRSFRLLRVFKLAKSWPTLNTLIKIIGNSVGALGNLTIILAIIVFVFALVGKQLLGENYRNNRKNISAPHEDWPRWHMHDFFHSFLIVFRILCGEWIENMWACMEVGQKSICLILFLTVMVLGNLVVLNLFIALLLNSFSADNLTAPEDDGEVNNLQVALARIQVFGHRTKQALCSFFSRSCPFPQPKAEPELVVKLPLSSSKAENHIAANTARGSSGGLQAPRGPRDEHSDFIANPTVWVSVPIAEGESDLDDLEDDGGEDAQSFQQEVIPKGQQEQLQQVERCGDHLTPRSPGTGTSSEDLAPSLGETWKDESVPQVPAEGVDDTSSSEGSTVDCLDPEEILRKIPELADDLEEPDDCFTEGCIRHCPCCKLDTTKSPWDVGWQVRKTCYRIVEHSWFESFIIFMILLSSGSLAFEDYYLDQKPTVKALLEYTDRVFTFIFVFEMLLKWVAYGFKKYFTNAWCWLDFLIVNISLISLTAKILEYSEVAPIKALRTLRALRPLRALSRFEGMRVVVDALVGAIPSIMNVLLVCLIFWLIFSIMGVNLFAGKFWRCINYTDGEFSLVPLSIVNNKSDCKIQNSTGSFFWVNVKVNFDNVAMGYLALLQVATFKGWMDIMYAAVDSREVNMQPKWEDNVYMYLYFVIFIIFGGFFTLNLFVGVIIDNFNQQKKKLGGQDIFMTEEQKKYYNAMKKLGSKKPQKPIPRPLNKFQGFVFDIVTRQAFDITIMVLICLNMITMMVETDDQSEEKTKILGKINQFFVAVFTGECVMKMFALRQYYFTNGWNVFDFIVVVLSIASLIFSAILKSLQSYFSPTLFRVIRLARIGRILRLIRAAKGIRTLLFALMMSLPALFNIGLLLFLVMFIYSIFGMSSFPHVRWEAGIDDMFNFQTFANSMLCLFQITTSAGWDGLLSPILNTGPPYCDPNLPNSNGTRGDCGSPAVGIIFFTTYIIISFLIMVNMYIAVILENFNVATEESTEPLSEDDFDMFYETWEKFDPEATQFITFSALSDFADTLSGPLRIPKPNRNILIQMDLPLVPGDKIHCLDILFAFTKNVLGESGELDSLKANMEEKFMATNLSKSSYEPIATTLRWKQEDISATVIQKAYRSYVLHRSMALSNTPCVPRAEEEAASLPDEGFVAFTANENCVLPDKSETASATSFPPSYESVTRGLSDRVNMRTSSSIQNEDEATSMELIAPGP
Briefly: In vitro inhibition of Nav1.8, manual patch clamp on HEK293 cells stably expressing human Nav1.8. Type of test: cell-based. To be noted: 100 nM, human Nav1.8, manual patch clamp. The procedure: Bioactivity Test 1: In Vitro Inhibition of Nav1.8 by the Compound
By using a manual patch clamp on HEK293 cells stably expressing human Nav1.8, currents on Nav1.8 before and after administration of the compound were compared after the currents on Nav1.8 were stable, to obtain the effect of the compound on the Nav1.8 channel.
The to-be-tested compound was dissolved in DMSO to prepare a 9 mM stock solution, which was taken and dissolved in extracellular fluid at a desired concentration on the day of testing. The extracellular fluid included the following ingredients (mM): NaCl, 137; KCl, 4; CaCl2, 1.8; MgCl2, 1; HEPES, 10; glucose, 10; and pH 7.4 (NaOH titration). All reagents were purchased from Sigma (St. Louis, MO).
The cells were clamped at −80 mV and depolarized with a sustained 10 ms square wave to 10 mV to obtain a current on Nav1.8. This process was repeated every 5 seconds. A maximum current caused by the square wave was detected. After the current is stable, the to-be-tested compound (dissolved in the extracellular fluid at the desired concentration) was perfused. After the current is stable, the strength of blocking Nav1.8 by the compound was calculated based on the currents before and after perfusion of the compound. pCLAMP 10 (Molecular Devices, Union City, CA) was used. That the current is stable means that the current changes over time within a limited range.
On to “rel-(2R,3S,4S,5R)-3-(3,4-difluoro-2-methoxyphenyl)-4,5-dimethyl-N-(4-oxo-3H-quinazolin-6-yl)-5-(trifluoromethyl)tetrahydrofuran-2-carboxamide [Example 4]”, for which the “Inhibitory activity (inhibition/% at 100 nM concentration)” value is “A (A ≥ 50)”.

The test is the same for the next values; noted with them: HEK293, 100 nM, human Nav1.8, manual patch clamp, read-out: Inhibitory activity (inhibition/% at 100 nM concentration).
For the compound `CCNS(=O)(=O)c1cc(NC(=O)[C@@H]2O[C@@](C)(C(F)(F)F)[C@@H](C)[C@H]2c2ccc(F)c(F)c2OC)ccn1` (relative stereo) [Example 83, rel-(2R,3S,4S,5R)-3-(3,4-difluoro-2-methoxyphenyl)-N-(2-(N-ethylsulfamoyl)pyridin-4-yl)-4,5-dimethyl-5-(trifluoromethyl)tetrahydrofuran-2-carboxamide], the inhibition at 0.1 µM was at least 50%.
Take `COc1c([C@H]2C(C(=O)Nc3ccc4c(c3)S(=O)(=O)NC4=O)O[C@@](C)(C(F)(F)F)[C@H]2C)ccc(F)c1F` (relative stereo) [Example 79, rel-(2R,3S,4S,5)-3-(3,4-difluoro-2-methoxyphenyl)-4,5-dimethyl-5-(trifluoromethyl)-N-(1,1,3-trioxo-2,3-dihydro-1λ6-benzo[d][1,2]thiazol-6-yl)tetrahydrofuran-2-carboxamide]: the inhibition at 0.1 µM is at least 50%.
As for `COc1c([C@H]2[C@H](C(=O)Nc3ccc4c(c3)C(=O)NC4)O[C@@](C)(C(F)(F)F)[C@H]2C)ccc(F)c1F` (relative stereo) [Example 1, rel-(2R,3S,4S,5R)-3-(3,4-difluoro-2-methoxyphenyl)-4,5-dimethyl-N-(3-oxoisoindolin-5-yl)-5-(trifluoromethyl)tetrahydrofuran-2-carboxamide], the inhibition at 0.1 µM is at least 50%.
The same measure, in the same setting: for `COc1c([C@H]2C(C(=O)Nc3ccc(S(N)(=O)=O)nc3)O[C@]3(C(F)(F)F)CC[C@]23C)ccc(F)c1F` (stereo partly shown) [Example 99] the value was at least 50%.
The same measure, in the same setting: in the case of `COc1c([C@H]2[C@H](C(=O)Nc3cc[n+](C)c(C(N)=O)c3)O[C@@](C)(C(F)(F)F)[C@H]2C)ccc(F)c1F` (relative stereo) [Example 16, rel-2-carbamoyl-4-((2R,3S,4S,5R)-3-(3,4-difluoro-2-methoxyphenyl)-4,5-dimethyl-5-(trifluoromethyl)tetrahydrofuran-2-carboxamido)-1-methylpyridin-1-onium iodide] it was at least 50%; in that of `COc1c(C2C(C(=O)Nc3ccnc(OCC(O)CO)c3)OC3(C(F)(F)F)CCC23C)ccc(F)c1F` [Example 95, rel-(1R,3R,4S,5R)-4-(3,4-difluoro-2-methoxyphenyl)-N-(2-(S)-2,3-dihydroxypropoxypyridin-4-yl)-5-methyl-1-trifluoromethyl-2-oxabicyclo[3.2.0]heptane-3-carboxamide], at least 50%.
`COc1c([C@H]2[C@H](C(=O)Nc3ccnc(N4CCN(C)CC4=O)c3)O[C@]3(C(F)(F)F)CC[C@]23C)ccc(F)c1F` (relative stereo) [Example 100, rel-(1R,3R,4S,5R)-4-(3,4-difluoro-2-methoxyphenyl)-5-methyl-N-(2-(4-methyl-2-oxopiperazin-1-yl)pyridin-4-yl)-1-(trifluoromethyl)-2-oxabicyclo[3.2.0]heptane-3-carboxamide]: the inhibition at 0.1 µM was at least 50%.
Same read-out and setting: in the case of `COc1c([C@H]2[C@H](C(=O)Nc3ccnc(C(N)=S)c3)O[C@@](C)(C(F)(F)F)[C@H]2C)ccc(F)c1F` (relative stereo) [Example 22, rel-(2R,3S,4S,5R)—N-[2-(aminothiomethylidene)pyridin-4-yl]-3-(3,4-difluoro-2-methoxyphenyl)-4,5-dimethyl-5-(trifluoromethyl)tetrahydrofuran-2-carboxamide] it was at least 50%; in that of `COc1c([C@H]2[C@H](C(=O)Nc3ccnc(C(=O)N4CCCO4)c3)O[C@@](C)(C(F)(F)F)[C@H]2C)ccc(F)c1F` (relative stereo) [Example 32, rel-(2R,3S,4S,5R)-3-(3,4-difluoro-2-methoxyphenyl)-4,5-dimethyl-N-[2-(tetrahydroisoxazol-2-ylcarbonyl)pyridin-4-yl]-5-(trifluoromethyl)tetrahydrofuran-2-carboxamide], at least 50%; in that of `COc1c(C2C(C(=O)Nc3cc(F)c(C(N)=O)c(C(N)=O)c3)OC(C)(C(F)(F)F)C2C)ccc(F)c1F` [Example 80, rel-5-((2R,3S,4S,5R)-3-(3,4-difluoro-2-methoxyphenyl)-4,5-dimethyl-5-(trifluoromethyl)tetrahydrofuran-2-carboxamide)-3-fluorophthalic amine], at least 50%.
For `COc1c([C@H]2[C@H](C(=O)Nc3ccc4c(c3)C(=O)OOC4N)O[C@@](C)(C(F)(F)F)[C@H]2C)ccc(F)c1F` (relative stereo) [Example 13, rel-(2R,3S,4S,5R)—N-(1-amino-4-oxo-3H-benzo[2,1-d][1,2]dioxine-6-yl)-3-(3,4-difluoro-2-methoxyphenyl)-4,5-dimethyl-5-(trifluoromethyl)tetrahydrofuran-2-carboxamide], the inhibition at 0.1 µM was at least 50%.
The same measure, in the same setting: in the case of `COc1c(C2[C@H](C(=O)Nc3ccnc(S(=O)(=O)NCC(F)(F)F)c3)O[C@@](C)(C(F)(F)F)[C@H]2C)ccc(F)c1F` (relative stereo) [Example 84, rel-(2R,3S,4S,5R)-3-(3,4-difluoro-2-methoxyphenyl)-4,5-dimethyl-N-(2-(N-(2,2,2-trifluoroethyl)sulfamoyl)pyridin-4-yl)-5-trifluoromethyl tetrahydrofuran-2-carboxamide] it was at least 50%; in that of `CN=S(C)(=O)c1cc(NC(=O)C2O[C@]3(C(F)(F)F)CC[C@]3(C)[C@H]2c2ccc(F)c(F)c2OC)ccn1` (relative stereo) [Example 94, rel-(1R,3R,4S,5R)-4-(3,4-difluoro-2-methoxyphenyl)-N-(2-(N,S-dimethylsulfonyl)pyridin-4-yl)-5-methyl-1-(trifluoromethyl)-2-oxabicyclo[3.2.0]heptane-3-carboxamide], at least 50%; in that of `COc1c([C@H]2[C@H](C(=O)Nc3ccnc(S(C)(=O)=O)c3)O[C@]3(C(F)(F)F)CC[C@]23C)ccc(F)c1F` (relative stereo) [Example 101, rel-(1R,3R,4S,5R)-4-(3,4-difluoro-2-methoxyphenyl)-5-methyl-N-(2-methylsulfonyl)pyridin-4-yl)-1-trifluoromethyl-2-oxabicyclo[3.2.0]heptane-3-carboxamide], at least 50%.
Consider `COc1c([C@H]2[C@H](C(=O)Nc3ccc4c(c3)C(=O)NC4=O)O[C@@](C)(C(F)(F)F)[C@H]2C)ccc(F)c1F` (relative stereo) [Example 10, rel-(2R,3S,4S,5R)-3-(3,4-difluoro-2-methoxyphenyl)-N-(1,3-dioxo-2,3-dihydro-1H-isoindol-5-yl)-4,5-dimethyl-5-(trifluoromethyl)tetrahydrofuran-2-carboxamide], for which the inhibition at 0.1 µM was at least 50%.
On to `COc1c([C@H]2[C@H](C(=O)Nc3ccc4c(c3)CNC4=O)O[C@@](C)(C(F)(F)F)[C@H]2C)ccc(F)c1F` (relative stereo) [Example 8, rel-(2R,3S,4S,5R)-3-(3,4-difluoro-2-methoxyphenyl)-4,5-dimethyl-N-(1-oxo-2,3-dihydro-1H-isoindol-5-yl)-5-(trifluoromethyl)tetrahydrofuran-2-carboxamide], for which the inhibition at 0.1 µM was at least 50%.
Same read-out and setting: in the case of `COc1c(C2C(C(=O)Nc3ccc(C(N)=O)c(C(N)=O)c3)OC3(C(F)(F)F)CCC23C)ccc(F)c1F` [Example 86, rel-4-((1R,3R,4S,5R)-4-(3,4-difluoro-2-methoxyphenyl)-5-methyl-1-(trifluoromethyl)-2-oxabicyclo[3.2.0]heptane-3-formylamino)phthalamide] it was at least 50%; in that of `COc1c([C@H]2[C@H](C(=O)Nc3ccc(C(N)=O)c(C(N)=O)c3)O[C@@](C)(C(F)(F)F)[C@H]2C)ccc(F)c1F` (relative stereo) [Example 30, rel-(2R,3S,4S,5R)-4-({[3-(3,4-difluoro-2-methoxyphenyl)-4,5-dimethyl-5-(trifluoromethyl)tetrahydrofuran-2-yl]carbonyl}amino)benzene-1,2-dicarboxamide], at least 50%.
`COc1c([C@H]2C(C(=O)Nc3ccnc(S(C)(=N)=O)c3)O[C@]3(C(F)(F)F)CC[C@]23C)ccc(F)c1F` (relative stereo) [Example 93, rel-(1R,3R,4S,5R)-4-(3,4-difluoro-2-methoxyphenyl)-5-methyl-N-(2-(S-methylsulfoximine)pyridin-4-yl)-1-(trifluoromethyl)-2-oxabicyclo[3.2.0]heptane-3-carboxamide]: the inhibition at 0.1 µM was at least 50%.
On the same count and under the same terms, for `COc1c([C@H]2[C@H](C(=O)Nc3ccc(C#N)c(C(N)=O)c3)O[C@@](C)(C(F)(F)F)[C@H]2C)ccc(F)c1F` (relative stereo) [Example 25, rel-(2R,3S,4S,5R)—N-(3-carbamoyl-4-cyanophenyl)-3-(3,4-difluoro-2-methoxyphenyl)-4,5-dimethyl-5-(trifluoromethyl)tetrahydrofuran-2-carboxamide] the value was at least 50%; for `COc1c([C@H]2[C@H](C(=O)Nc3ccc4c(=O)[nH][nH]c(=O)c4c3)O[C@@](C)(C(F)(F)F)[C@H]2C)ccc(F)c1F` (relative stereo) [Example 12], at least 50%.
